≈ marks a conversion by molar mass, not a printed value. Like-named read-outs stand apart in the source and are kept apart here.
Legend:
[1] = test system: E. Coli ATCC 9637; test: Serial dilution test in the microtiter system (MIC), E. Coli ATCC 9637; type: cell-based; settings: Escherichia coli, ATCC9637
[2] = test system: Escherichia coli ATCC 11 775; test: Serial dilution test in the microtiter system (MIC), E. Coli ATCC 11775; type: cell-based
Protocol: (§1) These tests were performed according to the method of the serial dilution test in the microtiter system. The effect of the substances on bacteriostasis was examined in a fluid medium. […] A nutrient medium of the following composition was used. 10 gm of peptone, 8 gm of meat extract-oxoid, 3 gm of sodium chloride, 2 gm of sec. sodium phosphate were diluted with distilled water to […] (pH 7.2-7.4). Only in the test against streptococci 1% of glucose was added. The age of the primary cultures was about 20 hours. The standardization of the pathogen suspension was effected by using a photometer according to "Eppendorf" (test tube dismeter 14 mm, filter 546 nm) with the aid of the turbidity of a comparison suspension consisting of barium sulfate, this suspension being prepared by addition of 3.0 ml of 1% barium chloride solution to 97 ml of 1% sulfuric acid. After the standardization, streptococcus aronson were further diluted to a concentration of 1:15 and the other microorganisms to a concentration of 1:1500 by means of a sodium chloride solution.
(§2) 16 mg of the test substance were put into a 10 ml-measuring flask and filled up to the mark with the solvent. The further dilution series was standardized with distilled water or the respective solvent.
(§3) The cavities of the microtiter plates were filled with 0.2 ml of nutrient medium. Then, 0.01 ml of the corresponding test substance dilution was added and inoculated with 0.01 ml of the standardized suspension. The bacteria were incubated at 37° C. for 18-20 hours. Control tests merely using the solvent were carried out simultaneously.
(§4) The measurement was carried out macroscopically to determine the minimal inhibitory (threshold) concentration, i.e. the lower still bacteriostatically effective concentration.
(§5) Staphylococcus aureus SG 511, Escherichia coli ATCC 11 775, Pseudomonas aeruginosa Hamburgensis and Pseudomonas aeruginosa Walter, Serratia marcescens ATCC 13880, Klebsiella pneumoniae ATCC 10 031 and 272, Proteus mirabilis Hamburgensis, Proteus rettgeri, Enterbacter cloaceae ATCC 13 047 and E. Coli R+TEM (β-lactamase carrier).

[3] = test system: Pseudomonas aeruginosa Walter; test: Serial dilution test in the microtiter system (MIC), Pseud. aerug. Walter; type: cell-based
Protocol: as §1, §2, §3, §4, §5

[4] = test system: Serratia marcescens ATCC 13880; test: Serial dilution test in the microtiter system (MIC), Serrat. marcesc. ATCC 13880; type: cell-based
Protocol: as §1, §2, §3, §4, §5

[5] = test system: Klebsiella pneumoniae ATCC 10 031; test: Serial dilution test in the microtiter system (MIC), Klebs. pneum. ATCC 10031; type: cell-based
Protocol: as §1, §2, §3, §4, §5

[6] = test system: Klebsiella pneumoniae 272; test: Serial dilution test in the microtiter system (MIC), Klebs. pneum. 272; type: cell-based
Protocol: as §1, §2, §3, §4, §5

[7] = test system: Proteus mirabilis Hamburgensis; test: Serial dilution test in the microtiter system (MIC), Prot. mirabilis; type: cell-based
Protocol: as §1, §2, §3, §4, §5

[8] = test system: Proteus rettgeri; test: Serial dilution test in the microtiter system (MIC), Prot. rettgeri; type: cell-based; settings: Providencia rettgeri
Protocol: as §1, §2, §3, §4, §5

[9] = test system: Enterbacter cloaceae ATCC 13 047; test: Serial dilution test in the microtiter system (MIC), Eb. cloaceae ATCC 13047; type: cell-based
Protocol: as §1, §2, §3, §4, §5

[10] = test system: E. coli ATCC 11775; test: In vivo activity in mice, E. coli infection; set-up: species or system Female NMRI mice; settings: Escherichia coli, ATCC11775, iPSC, sc, 168 h; E. coli infection i.p.; s.c. administration; per dose; observation 7 days; read-out: ED50 (dose at which 50% of the animals survived)
Protocol: (§6) A number of compounds of this invention were tested in vivo in mice against experimental infections. Bacteria E. coli ATCC 11775 and Psuedomonas aeruginosa Walter were used as pathogens. An intraperitoneal infection with 0.2 ml of a 5% suspension of the bacteria was induced. This corresponds to about 2×10^6 E. Coli germs and 8×10^5 pseudomonas germs/mouse. […] The groups with E. coli infection were treated with the test compound three times on the first day (1, 4, and 7 hours post infectionem) and for two days thereafter twice a day. The groups with the pseudomonas infection were treated with the test compound 6 times on the first day (1, 3, 6, 9, 12 and 15 hours post infectionem) and for two days thereafter twice a day. The observation time was in both cases 7 days. The results of these tests with representatives of the penicillins and cephalosporins according to the invention are shown in the following table: […]

[11] = test system: Psuedomonas aeruginosa Walter; test: In vivo activity in mice, Pseudomonas infection; set-up: species or system Female NMRI mice; settings: Mus musculus, iPSC, sc, 168 h; Pseudomonas infection i.p.; s.c. administration; per dose; observation 7 days; read-out: ED50 (dose at which 50% of the animals survived)
Protocol: as §6

[12] = test system: Staphylococcus aureus SG 511; test: Serial dilution test in the microtiter system (MIC), S. aureus SG 511; type: cell-based; settings: SG511, Table IV, S. aureus SG 511, 37° C., 18-20 hours, read-out: MIC
Protocol: as §1, §2, §3, §4, §5

[13] = test system: Pseudomonas aeruginosa Hamburgensis; test: Serial dilution test in the microtiter system (MIC), Pseud. aerug. Hbg.; type: cell-based
Protocol: as §1, §2, §3, §4, §5

[14] = Table III, E. Coli ATCC 11775, 37° C., 18-20 hours, read-out: MIC
[15] = Table III, Pseud. aerug. Walter, 37° C., 18-20 hours, read-out: MIC
[16] = ATCC13880, Table III, Serrat. marcesc. ATCC 13880, 37° C., 18-20 hours, read-out: MIC
[17] = Table III, Prot. mirabilis, 37° C., 18-20 hours, read-out: MIC
[18] = Table III, Prot. rettgeri, 37° C., 18-20 hours, read-out: MIC
[19] = Table III, E. Coli ATCC 9637, 37° C., 18-20 hours, read-out: MIC
[20] = Table III, Pseud. aerug. Hbg., 37° C., 18-20 hours, read-out: MIC
[21] = Table III, Eb. cloaceae ATCC 13047, 37° C., 18-20 hours, read-out: MIC

| SMILES | MIC [1] | MIC [2, 14] | MIC [3, 15] | MIC [4, 16] | MIC [5] | MIC [6]; 272 | MIC [7, 17] | MIC [8, 18] | MIC [9] | ED50 [10] | ED50 [11] | MIC [2] | MIC [7] | MIC [1, 19] | MIC [13, 20] | MIC [13] | MIC [3] | MIC [8] | MIC [9, 21] | other results |
| --- | --- | --- | --- | --- | --- | --- | --- | --- | --- | --- | --- | --- | --- | --- | --- | --- | --- | --- | --- | --- |
| CC1(C)S[C@@H]2[C@H](NC(=O)[C@H](NC(=O)Nc3cnc(NCc4cccnc4)nc3O)c3ccc(O)cc3)C(=O)N2[C@H]1C(=O)O [A, D-α-{3-[4-Hydroxy-2-(3'-pyridylmethylamino)-5-pyrimidinyl]-ureido}-p-hydroxy-benzyl-penicillin sodium] | 0.5 µg/mL | 0.5 µg/mL | 1 µg/mL | 0.5 µg/mL | 8 µg/mL | 8 µg/mL | 0.12 µg/mL | 1 µg/mL | 4 µg/mL | 0.7 mg/kg | 1.2 mg/kg |  |  |  |  |  |  |  |  |  |
| Cc1nnc(SCC2=C(C(=O)O)N3C(=O)[C@@H](NC(=O)Cn4cnnn4)[C@H]3SC2)s1 [Cephazolin, reference compound] |  |  |  |  |  | 2 µg/mL (≈ 4.4 µM) |  |  |  |  |  | 4 µg/mL (≈ 8.8 µM) | 4 µg/mL (≈ 8.8 µM) |  |  |  |  |  |  | MIC ([5]; Table IV, Klebs. pneum. ATCC 10031, 37° C., 18-20 hours, read-out: MIC): 1 µg/mL (≈ 2.2 µM); MIC [12]: 0.06 µg/mL (≈ 0.132 µM) |
| CC1(C)S[C@@H]2[C@H](NC(=O)[C@H](NC(=O)Nc3cnc(Nc4ccc(O)nc4)nc3O)c3ccc(O)cc3)C(=O)N2[C@H]1C(=O)O [G, D-α-{3-[4-Hydroxy-2-(6'-hydroxy-3'-pyridylamino)-5-pyrimidinyl]-ureido}-p-hydroxy-benzyl-penicillin sodium] |  | 0.2 µg/mL | 0.5 µg/mL | 0.1 µg/mL | 4 µg/mL | 4 µg/mL | 0.01 µg/mL | 0.5 µg/mL | 4 µg/mL |  |  |  |  | 0.2 µg/mL | 0.5 µg/mL |  |  |  |  |  |
| CC1(C)S[C@@H]2[C@H](NC(=O)[C@H](NC(=O)Nc3cnc(NCc4cccs4)nc3O)c3ccc(O)cc3)C(=O)N2[C@H]1C(=O)O [C, D-α-{3-[4-Hydroxy-2-(2'-thienylmethylamino)-5-pyrimidinyl]-ureido}-p-hydroxy-benzyl-penicillin sodium] | 0.5 µg/mL | 0.5 µg/mL |  | 0.5 µg/mL | 2 µg/mL | 2 µg/mL |  |  |  | 0.8 mg/kg | 2.5 mg/kg |  | 0.25 µg/mL |  |  | 2 µg/mL | 1 µg/mL | 0.12 µg/mL | 0.5 µg/mL |  |
| CC1(C)S[C@@H]2[C@H](NC(=O)[C@H](NC(=O)N3CCNC3=O)c3ccccc3)C(=O)N2[C@H]1C(=O)O [Azlocillin, reference compound] |  |  |  |  |  |  |  |  |  | ~35 mg/kg | ~110 mg/kg | 8 µg/mL (≈ 17.3 µM) | 2 µg/mL (≈ 4.33 µM) | 16 µg/mL (≈ 34.7 µM) |  | 8 µg/mL (≈ 17.3 µM) | 8 µg/mL (≈ 17.3 µM) | 8 µg/mL (≈ 17.3 µM) | 32 µg/mL (≈ 69.3 µM) | MIC ([4]; ATCC13880): 4 µg/mL (≈ 8.67 µM); MIC ([5]; Table III, Klebs. pneum. ATCC 10031, 37° C., 18-20 hours, read-out: MIC): 32 µg/mL (≈ 69.3 µM); MIC ([6]; Table III, Klebs. pneum. 272, 37° C., 18-20 hours, read-out: MIC): 32 µg/mL (≈ 69.3 µM) |
| CC1(C)S[C@@H]2[C@H](NC(=O)[C@H](NC(=O)Nc3cnc(Nc4ccc(C(N)=O)s4)nc3O)c3ccc(O)cc3)C(=O)N2[C@H]1C(=O)O [B, D-α-{3-[2-(5'-Aminocarbonyl-2'-thienylamino)-4-hydroxy-5-pyrimidinyl]-ureido}-p-hydroxy-benzyl-penicillin sodium] |  |  | 1 µg/mL | 0.2 µg/mL | 2 µg/mL | 2 µg/mL | 0.06 µg/mL | 0.5 µg/mL | 2 µg/mL | 1.3 mg/kg | 4.8 mg/kg | 0.25 µg/mL |  | 0.5 µg/mL | 1 µg/mL |  |  |  |  |  |

From patent US4415566A, “Cephalosporin derivatives” (Boehringer Ingelheim GmbH, priority 1979, dated 1983)
